Data taken from article PMC5697638, “Identification of a Potent Phosphoinositide 3‐Kinase Pan Inhibitor Displaying a Strategic Carboxylic Acid Group and Development of Its Prodrugs” (Chemmedchem, 2017).
Read-outs that look alike come from different tables or passages of the source.

How the values were obtained:
Type in all cases: biochemical
[1] = target: T1, human PI3Kα (PIK3CA/PIK3R1) (Homo sapiens, UniProt P42336); test: lipid kinase assay (ADP-Glo), PI3Kα; conditions: for IC50: mean of at least three determinations, 95 % confidence intervals; for inhibition at 1 µM: determined at 1 μM, at least triplicate, read-out: Inhibitory activity, PI3K isoform α
T1 construct: purchased ProQinase, Germany 1161‐1165‐1
T1 sequence (P42336 whole entry, canonical isoform): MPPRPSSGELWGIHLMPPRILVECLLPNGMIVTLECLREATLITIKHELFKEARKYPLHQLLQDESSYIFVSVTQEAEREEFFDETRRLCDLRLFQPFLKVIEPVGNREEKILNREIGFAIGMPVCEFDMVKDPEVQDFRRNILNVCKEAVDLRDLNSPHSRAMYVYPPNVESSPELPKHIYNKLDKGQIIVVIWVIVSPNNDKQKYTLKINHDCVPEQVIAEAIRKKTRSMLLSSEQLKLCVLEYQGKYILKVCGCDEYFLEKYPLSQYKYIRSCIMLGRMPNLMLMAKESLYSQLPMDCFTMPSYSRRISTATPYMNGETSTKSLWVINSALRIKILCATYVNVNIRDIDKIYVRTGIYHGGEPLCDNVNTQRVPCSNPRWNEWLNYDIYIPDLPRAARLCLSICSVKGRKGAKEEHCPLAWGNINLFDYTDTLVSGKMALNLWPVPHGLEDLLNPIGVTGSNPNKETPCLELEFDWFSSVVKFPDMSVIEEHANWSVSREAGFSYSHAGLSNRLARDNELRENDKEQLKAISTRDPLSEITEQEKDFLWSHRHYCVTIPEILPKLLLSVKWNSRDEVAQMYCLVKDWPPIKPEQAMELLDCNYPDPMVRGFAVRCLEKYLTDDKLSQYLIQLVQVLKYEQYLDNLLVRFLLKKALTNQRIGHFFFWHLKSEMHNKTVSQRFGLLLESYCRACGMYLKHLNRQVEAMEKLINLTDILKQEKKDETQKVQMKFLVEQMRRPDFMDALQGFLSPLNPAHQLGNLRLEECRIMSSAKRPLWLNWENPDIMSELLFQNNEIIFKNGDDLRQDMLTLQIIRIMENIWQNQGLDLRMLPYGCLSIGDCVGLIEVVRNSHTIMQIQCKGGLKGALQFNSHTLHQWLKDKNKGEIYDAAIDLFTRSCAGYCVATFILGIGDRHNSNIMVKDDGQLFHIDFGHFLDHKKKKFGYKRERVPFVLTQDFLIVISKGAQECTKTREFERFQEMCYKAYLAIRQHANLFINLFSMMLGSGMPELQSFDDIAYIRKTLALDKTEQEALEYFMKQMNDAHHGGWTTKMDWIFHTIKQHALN
T1 sequence (P27986 whole entry partner, canonical isoform): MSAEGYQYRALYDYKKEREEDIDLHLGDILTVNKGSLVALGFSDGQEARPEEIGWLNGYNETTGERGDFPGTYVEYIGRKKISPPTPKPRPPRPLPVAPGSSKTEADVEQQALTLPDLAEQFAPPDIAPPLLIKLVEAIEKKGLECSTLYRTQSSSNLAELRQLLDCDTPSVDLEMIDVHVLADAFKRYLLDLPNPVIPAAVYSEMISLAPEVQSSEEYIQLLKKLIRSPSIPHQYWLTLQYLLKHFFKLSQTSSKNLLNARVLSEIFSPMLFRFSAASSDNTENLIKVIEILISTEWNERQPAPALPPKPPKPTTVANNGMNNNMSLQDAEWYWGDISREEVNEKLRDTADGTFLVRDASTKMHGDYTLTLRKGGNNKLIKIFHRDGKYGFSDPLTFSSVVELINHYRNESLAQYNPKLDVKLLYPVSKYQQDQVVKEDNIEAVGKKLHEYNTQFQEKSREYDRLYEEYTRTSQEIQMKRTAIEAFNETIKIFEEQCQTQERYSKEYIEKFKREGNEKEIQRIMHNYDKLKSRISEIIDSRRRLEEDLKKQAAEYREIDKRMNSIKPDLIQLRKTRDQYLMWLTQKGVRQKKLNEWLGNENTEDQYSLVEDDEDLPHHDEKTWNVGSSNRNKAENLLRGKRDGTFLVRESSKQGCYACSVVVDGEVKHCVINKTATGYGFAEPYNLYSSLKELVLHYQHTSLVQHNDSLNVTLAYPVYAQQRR
Description: (§1) In vitro selection, lipid kinase assay: To determine the inhibitory activity of the new molecular entities on PI3K enzyme, a lipid kinase assay was performed: recombinant proteins (30 ng), human PI3Kα (PIK3CA/PIK3R1, #1161‐1165‐1 ProQinase–Germany), hPI3Kβ (PIK3CB wt/PIK3R1, #1168‐1165‐1 ProQinase, Germany), hPI3Kγ (PIK3CG, #1163‐0000‐1 ProQinase, Germany), hPI3Kδ (PIK3CD/PIK3R1, #1162–1165‐1 ProQinase, Germany), hPI3K‐C2α (PIK3C2A, #14‐906 Merck Millipore_Merck KGaA, Germany), hPI3K‐C2β (PIK3C2B, #14‐907 Merck Millipore_Merck KGaA, Germany), hPI3K‐c2γ (PIK3C2G, #1207‐0000‐1 ProQinase, Germany), and hVps34 (PIK3C3, #1160‐0000‐1 ProQinase, Germany), were incubated in kinase buffer {12.5 μL; 20 mM Tris‐HCl pH 7.5, 10 mM MgCl2, 10 μM ATP, 0.05 mg mL^−1 BSA, 0.5 mM EDTA, 5 mM HEPES pH 7.5, for PI3Kα,PI3Kβ, PI3Kγ, PI3Kδ, PI3KC‐2α, and PI3KC‐2γ; 15 mM MnCl2, 5 mM EGTA, 100 μM ATP, 50 mM HEPES pH 7.5, 100 mM NaCl, and 0.03 % CHAPS for PI3K‐C2β and VPS34 {BSA=bovine serum albumin; EDTA=ethylenediaminetetraacetic acid; HEPES=4‐(2‐hydroxyethyl)‐1‐piperazineethanesulfonic acid; EGTA=ethylene glycol‐bis(2‐aminoethylether)‐N,N,N′,N′‐tetraacetic acid; CHAPS=3‐[(3‐cholamidopropyl)dimethylammonio]‐1‐propanesulfonate}. In the reaction, the ATP concentration used for different PI3Ks was defined on the basis of the Michaelis–Menten kinetics of each enzyme, provided by the supplier. Reaction was performed in presence of 0.5 mg mL^−1 lipid micelles (1:1 phosphatidylinositol/phosphatidylserine) and in the absence (DMSO alone) or presence of increasing concentrations of each compound (from 0.1 nM to 30 μM). The mixture was kept at room temperature (RT) for 30 min for PI3Kα, PI3Kβ, PI3Kγ, PI3Kδ, PI3KC‐2α, and PI3KC‐2γ and for 1 h for PI3K‐C2β and PI3K‐C3. The amount of ADP produced in the reaction was measured by using the ADP‐Glo Kinase Assay kit from Promega (#V9102) and a luminescence reader (Glomax multi detection system, Promega, model number 9301‐010).
(§2) The residual PI3K lipid kinase activity in the presence of each molecule at different concentrations was related to the control, intended as the recombinant protein in the presence of DMSO alone and was expressed as a percentage. To derive the IC50 value, all data (% of lipid kinase activity) were plotted on a dose–response curve (Graph Pad software), and the IC50 was calculated by using nonlinear regression fit (equation [log agonist] versus response).

[2] = target: T2, hPI3Kβ (PIK3CB wt/PIK3R1) (Homo sapiens, UniProt P42338); test: lipid kinase assay (ADP-Glo), PI3Kβ; conditions: for IC50: Table 2, mean of at least three determinations, 95 % confidence intervals; for inhibition at 1 µM: determined at 1 μM, at least triplicate, read-out: Inhibitory activity, PI3K isoform β
T2 construct: purchased ProQinase, Germany 1168‐1165‐1
T2 sequence (P42338 whole entry, canonical isoform): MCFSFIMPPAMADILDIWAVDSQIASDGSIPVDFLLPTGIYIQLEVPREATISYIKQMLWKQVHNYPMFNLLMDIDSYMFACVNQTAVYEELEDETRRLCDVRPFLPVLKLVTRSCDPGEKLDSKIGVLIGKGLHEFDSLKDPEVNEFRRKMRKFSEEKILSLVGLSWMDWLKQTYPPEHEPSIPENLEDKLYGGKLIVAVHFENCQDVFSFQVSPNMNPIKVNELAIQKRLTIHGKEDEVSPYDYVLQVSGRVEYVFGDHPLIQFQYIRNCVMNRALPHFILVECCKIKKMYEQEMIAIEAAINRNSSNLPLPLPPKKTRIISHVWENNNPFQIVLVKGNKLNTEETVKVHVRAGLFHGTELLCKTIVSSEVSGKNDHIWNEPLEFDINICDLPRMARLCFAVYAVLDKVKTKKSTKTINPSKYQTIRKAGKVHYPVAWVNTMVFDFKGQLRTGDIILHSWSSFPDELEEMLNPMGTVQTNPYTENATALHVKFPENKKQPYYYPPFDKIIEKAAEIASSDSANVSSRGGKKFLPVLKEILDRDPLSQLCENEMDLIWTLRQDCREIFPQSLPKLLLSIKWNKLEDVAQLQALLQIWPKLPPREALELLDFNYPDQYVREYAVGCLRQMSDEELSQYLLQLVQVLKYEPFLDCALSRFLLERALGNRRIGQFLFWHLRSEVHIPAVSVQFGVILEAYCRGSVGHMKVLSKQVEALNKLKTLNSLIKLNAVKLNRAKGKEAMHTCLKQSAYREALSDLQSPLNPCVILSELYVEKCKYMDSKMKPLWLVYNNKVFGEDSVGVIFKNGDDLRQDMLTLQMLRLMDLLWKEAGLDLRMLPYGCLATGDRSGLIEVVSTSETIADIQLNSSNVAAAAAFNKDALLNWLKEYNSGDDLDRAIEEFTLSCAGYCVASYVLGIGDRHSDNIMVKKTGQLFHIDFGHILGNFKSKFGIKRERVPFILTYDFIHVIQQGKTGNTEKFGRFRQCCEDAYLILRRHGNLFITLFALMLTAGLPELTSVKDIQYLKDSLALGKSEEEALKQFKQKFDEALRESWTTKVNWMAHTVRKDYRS
T2 sequence (P27986 whole entry partner, canonical isoform): as the sequence (P27986 whole entry partner, canonical isoform) above
Description: as §1, §2

hPI3Kδ (PIK3CD/PIK3R1) = target: T3, hPI3Kδ (PIK3CD/PIK3R1) (Homo sapiens, UniProt O00329); test: lipid kinase assay (ADP-Glo), PI3Kδ; conditions: for IC50: Table 2, mean of at least three determinations, 95 % confidence intervals; for inhibition at 1 µM: determined at 1 μM, at least triplicate, read-out: Inhibitory activity, PI3K isoform δ
T3 construct: purchased ProQinase, Germany 1162–1165‐1
T3 sequence (O00329 whole entry, canonical isoform): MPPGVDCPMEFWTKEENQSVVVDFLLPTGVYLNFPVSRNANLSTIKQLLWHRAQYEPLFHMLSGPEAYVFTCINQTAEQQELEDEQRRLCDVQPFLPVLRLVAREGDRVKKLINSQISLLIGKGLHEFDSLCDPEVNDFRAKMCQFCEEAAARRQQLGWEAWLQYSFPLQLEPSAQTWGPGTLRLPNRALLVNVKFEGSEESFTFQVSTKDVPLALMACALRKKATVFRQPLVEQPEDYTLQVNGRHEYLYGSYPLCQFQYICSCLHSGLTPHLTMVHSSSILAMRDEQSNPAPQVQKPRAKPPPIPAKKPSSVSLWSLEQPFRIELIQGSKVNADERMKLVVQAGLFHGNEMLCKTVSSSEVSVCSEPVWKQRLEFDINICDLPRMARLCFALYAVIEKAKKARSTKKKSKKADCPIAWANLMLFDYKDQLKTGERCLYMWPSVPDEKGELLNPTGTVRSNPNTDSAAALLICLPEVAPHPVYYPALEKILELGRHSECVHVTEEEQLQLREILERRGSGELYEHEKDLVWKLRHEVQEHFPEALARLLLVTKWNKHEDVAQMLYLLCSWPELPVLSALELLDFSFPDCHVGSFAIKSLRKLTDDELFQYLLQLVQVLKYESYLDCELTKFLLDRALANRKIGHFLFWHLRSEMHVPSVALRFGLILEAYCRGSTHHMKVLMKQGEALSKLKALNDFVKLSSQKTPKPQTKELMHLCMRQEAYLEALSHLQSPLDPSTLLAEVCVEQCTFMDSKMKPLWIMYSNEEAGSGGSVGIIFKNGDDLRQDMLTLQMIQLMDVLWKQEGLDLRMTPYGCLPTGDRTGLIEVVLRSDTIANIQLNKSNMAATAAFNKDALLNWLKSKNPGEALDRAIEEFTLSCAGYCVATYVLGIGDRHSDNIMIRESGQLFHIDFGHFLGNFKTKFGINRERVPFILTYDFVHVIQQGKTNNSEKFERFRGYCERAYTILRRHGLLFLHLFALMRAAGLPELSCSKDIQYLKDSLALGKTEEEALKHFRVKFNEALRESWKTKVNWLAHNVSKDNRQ
T3 sequence (P27986 whole entry partner, canonical isoform): as the sequence (P27986 whole entry partner, canonical isoform) above
Description: as §1, §2

hPI3Kγ (PIK3CG) = target: T4, hPI3Kγ (PIK3CG) (Homo sapiens, UniProt P48736); test: lipid kinase assay (ADP-Glo), PI3Kγ; conditions: for IC50: Table 2, mean of at least three determinations, 95 % confidence intervals; for inhibition at 1 µM: determined at 1 μM, at least triplicate, read-out: Inhibitory activity, PI3K isoform γ
T4 construct: purchased ProQinase, Germany 1163‐0000‐1
T4 sequence (P48736 whole entry, canonical isoform): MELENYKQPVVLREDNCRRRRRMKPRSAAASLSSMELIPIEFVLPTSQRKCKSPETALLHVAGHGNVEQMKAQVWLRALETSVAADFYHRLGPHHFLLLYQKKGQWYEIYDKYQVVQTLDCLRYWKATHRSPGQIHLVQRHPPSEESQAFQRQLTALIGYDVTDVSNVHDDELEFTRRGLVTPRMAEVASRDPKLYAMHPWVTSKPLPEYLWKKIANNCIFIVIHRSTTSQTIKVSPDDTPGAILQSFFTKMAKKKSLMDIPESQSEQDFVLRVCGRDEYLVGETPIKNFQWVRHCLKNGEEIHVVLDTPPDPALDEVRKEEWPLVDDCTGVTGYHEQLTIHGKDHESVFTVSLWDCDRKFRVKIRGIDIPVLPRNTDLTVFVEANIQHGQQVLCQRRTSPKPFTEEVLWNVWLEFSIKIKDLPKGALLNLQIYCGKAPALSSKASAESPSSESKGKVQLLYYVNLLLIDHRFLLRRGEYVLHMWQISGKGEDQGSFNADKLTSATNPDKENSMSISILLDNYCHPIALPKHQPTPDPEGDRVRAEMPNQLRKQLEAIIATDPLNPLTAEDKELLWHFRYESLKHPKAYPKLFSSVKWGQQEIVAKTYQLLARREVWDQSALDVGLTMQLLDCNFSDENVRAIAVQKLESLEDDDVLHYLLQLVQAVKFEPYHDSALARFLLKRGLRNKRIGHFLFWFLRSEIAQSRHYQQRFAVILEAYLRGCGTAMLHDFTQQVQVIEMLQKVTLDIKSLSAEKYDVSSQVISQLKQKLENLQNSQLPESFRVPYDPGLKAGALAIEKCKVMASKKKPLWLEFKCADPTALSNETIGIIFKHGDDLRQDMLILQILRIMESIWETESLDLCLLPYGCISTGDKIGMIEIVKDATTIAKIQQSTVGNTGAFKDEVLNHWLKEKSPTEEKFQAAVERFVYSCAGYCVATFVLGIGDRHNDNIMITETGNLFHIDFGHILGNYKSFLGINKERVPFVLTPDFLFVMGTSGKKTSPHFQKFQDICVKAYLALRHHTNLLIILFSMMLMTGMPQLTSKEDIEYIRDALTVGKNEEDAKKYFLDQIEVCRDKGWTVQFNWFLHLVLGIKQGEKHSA
Description: as §1, §2

[3] = Table 3, analogues of 37, read-out: IC50 against PI3Kα

Row | SMILES | IC50 [1, 3] [nM] | inhibition at 1 µM [1] [%] | inhibition at 1 µM [2] [%] | inhibition at 1 µM (hPI3Kδ (PIK3CD/PIK3R1)) [%] | inhibition at 1 µM (hPI3Kγ (PIK3CG)) [%] | other results
1 | Cc1cc(F)ccc1Oc1cccc2c(=O)cc(N3CCOCC3)[nH]c12 [TGX155, reference compound] |  |  |  |  |  | IC50 ([1]; Table 2, read-out: IC50 PI3Kα): > 10000 nM; IC50 [2]: 96 ± 7 nM; IC50 (hPI3Kδ (PIK3CD/PIK3R1)): 410 ± 130 nM; IC50 (hPI3Kγ (PIK3CG)): 9400 ± 1200 nM
2 | O=c1cc(N2CCOCC2)[nH]c2c(-c3cn(-c4ccc5c(c4)OCO5)nn3)cccc12 [Compound 46, 8‐[1‐(Benzo[d][1,3]dioxol‐5‐yl)‐1H‐1,2,3‐triazol‐4‐yl]‐2‐morpholinoquinolin‐4(1H)‐one] |  | < 50 | < 50 | < 50 | < 50 | 
3 | O=c1cc(N2CCOCC2)[nH]c2c(-c3cn(-c4ccccc4CO)nn3)cccc12 [Compound 41, 8‐{1‐[2‐(Hydroxymethyl)phenyl]‐1H‐1,2,3‐triazol‐4‐yl}‐2‐morpholinoquinolin‐4(1H)‐one] |  | < 50 | < 50 | < 50 | < 50 | 
4 | O=C(O)CCCn1cc(-c2cccc3c(=O)cc(N4CCOCC4)[nH]c23)nn1 [Compound 55, 4‐[4‐(2‐Morpholino‐4‐oxo‐1,4‐dihydroquinolin‐8‐yl)‐1H‐1,2,3‐triazol‐1‐yl]butanoic acid] | > 1000 |  |  |  |  | 
5 | COc1ccc(NC(C)=O)cc1-n1cc(-c2cccc3c(=O)cc(N4CCOCC4)[nH]c23)nn1 [Compound 38, N ‐{4‐Methoxy‐3‐[4‐(2‐morpholino‐4‐oxo‐1,4‐dihydroquinolin‐8‐yl)‐1H‐1,2,3‐triazol‐1‐yl]phenyl}acetamide] |  | < 50 | < 50 | < 50 | < 50 | 
6 | COc1ccc(-n2cc(-c3cccc4c(=O)cc(N5CCOCC5)[nH]c34)nn2)cc1[N+](=O)[O-] [Compound 30, 8‐[1‐(4‐Methoxy‐3‐nitrophenyl)‐1H‐1,2,3‐triazol‐4‐yl]‐2‐morpholinoquinolin‐4(1H)‐one] |  | < 50 | < 50 | < 50 | < 50 | 
7 | O=c1cc(N2CCOCC2)[nH]c2c(-c3cn(-c4ccccc4)nn3)cccc12 [Compound 25, 2‐Morpholino‐8‐(1‐phenyl‐1H‐1,2,3‐triazol‐4‐yl)quinolin‐4(1H)‐one] |  | > 50 | < 50 | > 50 | < 50 | IC50 ([1]; Table 2, read-out: IC50 PI3Kα): 740 ± 310 nM; IC50 [2]: 5500 ± 2500 nM; IC50 (hPI3Kδ (PIK3CD/PIK3R1)): 610 ± 270 nM; IC50 (hPI3Kγ (PIK3CG)): 3000 ± 1000 nM
8 | N#CCc1ccc(-n2cc(-c3cccc4c(=O)cc(N5CCOCC5)[nH]c34)nn2)cc1 [Compound 33, 2‐{4‐[4‐(2‐Morpholino‐4‐oxo‐1,4‐dihydroquinolin‐8‐yl)‐1H‐1,2,3‐triazol‐1‐yl]phenyl} acetonitrile] |  | < 50 | < 50 | < 50 | < 50 | 
9 | O=c1cc(N2CCOCC2)[nH]c2c(-c3cn(-c4ccccc4O)nn3)cccc12 [Compound 54, 8‐[1‐(2‐Hydroxyphenyl)‐1H‐1,2,3‐triazol‐4‐yl]‐2‐morpholinoquinolin‐4(1H)‐one] |  | > 50 | < 50 | > 50 | < 50 | IC50 ([1]; Table 2, read-out: IC50 PI3Kα): 260 ± 120 nM; IC50 [2]: 1100 ± 500 nM; IC50 (hPI3Kδ (PIK3CD/PIK3R1)): 350 ± 170 nM; IC50 (hPI3Kγ (PIK3CG)): 1400 ± 440 nM
10 | O=c1cc(N2CCOCC2)[nH]c2c(-c3cn(-c4ccc(Cl)cc4)nn3)cccc12 [Compound 28, 8‐[1‐(4‐Chlorophenyl)‐1H‐1,2,3‐triazol‐4‐yl]‐2‐morpholinoquinolin‐4(1H)‐one] |  | < 50 | < 50 | < 50 | < 50 | 
11 | O=c1cc(N2CCOCC2)[nH]c2c(-c3cn(Cc4cccc(-c5nnn[nH]5)c4)nn3)cccc12 [Compound 63, 8‐{1‐[3‐(1H‐Tetrazol‐5‐yl)benzyl]‐1H‐1,2,3‐triazol‐4‐yl}‐2‐morpholinoquinolin‐4(1H)‐one] | > 1000 |  |  |  |  | 
12 | O=C(NC1CC1)c1cccc(Cn2cc(-c3cccc4c(=O)cc(N5CCOCC5)[nH]c34)nn2)c1 [Compound 61, N ‐Cyclopropyl‐3‐{[4‐(2‐morpholino‐4‐oxo‐1,4‐dihydroquinolin‐8‐yl)‐1H‐1,2,3‐triazol‐1‐yl]methyl}benzamide] | 250 ± 80 |  |  |  |  | 
13 | NC(=O)c1cccc(Cn2cc(-c3cccc4c(=O)cc(N5CCOCC5)[nH]c34)nn2)c1 [Compound 59, 3‐{[4‐(2‐Morpholino‐4‐oxo‐1,4‐dihydroquinolin‐8‐yl)‐1H‐1,2,3‐triazol‐1‐yl]methyl}benzamide] | 800 ± 740 |  |  |  |  | 
14 | CCN(CC)C(=O)c1cccc(Cn2cc(-c3cccc4c(=O)cc(N5CCOCC5)[nH]c34)nn2)c1 [Compound 62, N,N ‐Diethyl‐3‐{[4‐(2‐morpholino‐4‐oxo‐1,4‐dihydroquinolin‐8‐yl)‐1H‐1,2,3‐triazol‐1‐yl]methyl}benzamide] | 290 ± 80 |  |  |  |  | 

Second part, led by results:

Row | IC50 [1, 3] [nM] | inhibition at 1 µM [1] [%] | inhibition at 1 µM [2] [%] | inhibition at 1 µM (hPI3Kδ (PIK3CD/PIK3R1)) [%] | inhibition at 1 µM (hPI3Kγ (PIK3CG)) [%] | SMILES | other results
15 | > 1000 |  |  |  |  | CS(=O)(=O)NC(=O)c1cccc(Cn2cc(-c3cccc4c(=O)cc(N5CCOCC5)[nH]c34)nn2)c1 [Compound 58, N ‐(Methylsulfonyl)‐3‐{[4‐(2‐morpholino‐4‐oxo‐1,4‐dihydroquinolin‐8‐yl)‐1H‐1,2,3‐triazol‐1‐yl]methyl}benzamide] | 
16 | > 1000 |  |  |  |  | O=C(O)CCCCn1cc(-c2cccc3c(=O)cc(N4CCOCC4)[nH]c23)nn1 [Compound 56, 5‐[4‐(2‐Morpholino‐4‐oxo‐1,4‐dihydroquinolin‐8‐yl)‐1H‐1,2,3‐triazol‐1‐yl]pentanoic acid] | 
17 |  | < 50 | < 50 | < 50 | < 50 | COC(=O)c1cccc(-n2cc(-c3cccc4c(=O)cc(N5CCOCC5)[nH]c34)nn2)c1 [Compound 49, Methyl 3‐[4‐(2‐morpholino‐4‐oxo‐1,4‐dihydroquinolin‐8‐yl)‐1H‐1,2,3‐triazol‐1‐yl]benzoate] | 
18 | > 1000 |  |  |  |  | O=C(O)CCCCCn1cc(-c2cccc3c(=O)cc(N4CCOCC4)[nH]c23)nn1 [Compound 57] | 
19 |  | < 50 | < 50 | < 50 | < 50 | Cc1cc(O)ccc1-n1cc(-c2cccc3c(=O)cc(N4CCOCC4)[nH]c23)nn1 [Compound 40, 8‐[1‐(4‐Hydroxy‐2‐methylphenyl)‐1H‐1,2,3‐triazol‐4‐yl]‐2‐morpholinoquinolin‐4(1H)‐one] | 
20 |  | < 50 | < 50 | < 50 | < 50 | O=c1cc(N2CCOCC2)[nH]c2c(-c3cn(-c4cccc(O)c4)nn3)cccc12 [Compound 26, 8‐[1‐(3‐Hydroxyphenyl)‐1H‐1,2,3‐triazol‐4‐yl]‐2‐morpholinoquinolin‐4(1H)‐one] | 
21 |  | < 50 | < 50 | < 50 | < 50 | Nc1ccc(-n2cc(-c3cccc4c(=O)cc(N5CCOCC5)[nH]c34)nn2)cc1 [Compound 32, 8‐[1‐(4‐Aminophenyl)‐1H‐1,2,3‐triazol‐4‐yl]‐2‐morpholinoquinolin‐4(1H)‐one] | 
22 | 140 ± 90 |  |  |  |  | O=C(NCc1ccccc1)c1cccc(Cn2cc(-c3cccc4c(=O)cc(N5CCOCC5)[nH]c34)nn2)c1 [Compound 60, N ‐Benzyl‐3‐{[4‐(2‐morpholino‐4‐oxo‐1,4‐dihydroquinolin‐8‐yl)‐1H‐1,2,3‐triazol‐1‐yl]methyl}benzamide] | 
